Reference: publication PMC11161644, “An effective and rapidly degradable disinfectant from disinfection byproducts” (Nature Communications, 2024)
Several values for one entry are separate records, joined by “and”; a condition that tells them apart may be missing. Identical values can stand only once. Like-named read-outs stand apart in the source and are kept apart here.

Assays:
[1] = Degradation in seawater in darkness (pH 6.2, 7.2, 8.2); conditions: for Ln (C/C0): seawater pH 8.2, darkness
Procedure: To study the DBP degradation in seawater in darkness, a DBP was added at 10 mg L^−1 to 50 mL pretreated seawater (pH 8.2) in the quartz flasks. The flasks were wrapped with aluminum foil to simulate the dark condition. The samples were kept at 20 °C in darkness for 0‒120 h, during which the sample was adjusted to pH 6.2 and 7.2 or maintained at pH 8.2 by adding 4 mM phosphate buffer (pH 6.2, 7.2, and 8.2, respectively).
(§1) For the DBP samples with and without sunlight, aliquots were taken at a specific reaction time. The sample aliquots were analyzed using Agilent high-performance liquid chromatography (HPLC) equipped with a Poroshell 120 EC-C18 column (4.6 × 150 mm, 4 µm particle size, Agilent) and a UV detector. The mobile phase, consisting of water (pre-adjusted to pH 2 with phosphoric acid) and acetonitrile at 50/50 (v/v), was applied at a flow rate of 1.0 mL min^−1. PCMX, 2,4-dihalophenols and 5-halosalicylic acids were detected at the wavelength of 230 nm. 2,5-Dihalohydroquinones and 2,6-DCQ were detected at the wavelength of 280 nm. All the degradation experiments were conducted in duplicate.

C. albicans (ATCC 14053) = assay: Inactivation of C. albicans (contact time 5 min); type: cell-based, Candida albicans; conditions: Candida albicans, ATCC14053, 5 min, pH 7.2, read-out: Log (N/N0), C. albicans; dose 300 mg L-1; pH 7.2; contact time 5 min
Procedure: (§2) The chemicals and reagents used are detailed in Supplementary Note 1. The bacteria E. coli (ATCC 25922) and S. aureus (ATCC 25923) were cultured aerobically in Luria-Bertani broth (Sigma-Aldrich) and Tryptone Soya broth (Oxoid), respectively, at 37 °C for 16 h. The fungus C. albicans (ATCC 14053) was aerobically cultured in Sabouraud Dextrose broth (Difco) at 37 °C for 24 h. The microorganism cells were harvested by centrifugation at 1200×g (10 min, 4 °C) and resuspended in phosphate-buffered saline (PBS, 10 mM, pH 7.2). The disinfection experiments were performed in PBS solutions (10 mM, pH 7.2) with an initial concentration of E. coli, S. aureus, or C. albicans of 10^6‒10^7 cells per milliliter. A contact time of 5 min was used in accordance with the recommended time range of 0.25–10 min by USEPA for surface disinfection. Preliminary tests were conducted to determine the appropriate range of DBP doses. The appropriate dose range was established when the lowest and highest doses could achieve <1-log and >3-log of microbial inactivation, respectively. Based on the preliminary results, a series of doses of DBPs were added to the cell suspensions at room temperature (22 ± 1 °C). After the contact time of 5 min, the microorganism cells were enumerated following a membrane filter method. Briefly, serial 10-fold dilutions were conducted for the disinfected samples and the control sample without disinfection. Each diluted suspension was subjected to filtration through 0.45-μm membrane, which was then placed on a petri dish. The Petri dishes containing E. coli, S. aureus, and C. albicans were incubated in m-FC medium (Becton Dickinson & Co) at 45 °C for 24 h, in Tryptone Soya broth at 37 °C for 24 h and in Sabouraud Dextrose broth at 37 °C for 24 h, respectively. After incubation, the colony-forming units within a statistically reasonable range (20–80) were counted.

[2] = Degradation in seawater with simulated solar irradiation; conditions: for half-life at 10 mg L−1: buffer, pH 8.2; for Ln (C/C0): seawater pH 8.2, solar irradiation
Procedure: The solar photolysis experiments were conducted in a chamber equipped with eight simulated sunlight full-spectrum lamps (BlueMax 5900, Full Spectrum Solutions). The temperature in the chamber was maintained at 20 °C. The total intensity of simulated sunlight was determined using a digital photometer (DT-1010B, Shenzhen Golden Octopus, China). Quartz flasks were positioned in the chamber where the total intensity of simulated sunlight was 4.79 ± 0.04 mW cm^−2 for each quartz flask. […] A DBP was added at 10 mg L^−1 to 50 mL pretreated seawater (pH 8.2) in the quartz flasks and exposed to the simulated solar irradiation for 0‒96 h. Every 8 h, the quartz flasks were rotated in and out of the chamber, and the sample volume was determined and adjusted with ultrapure water to account for any water evaporation. During the solar irradiation experiments, the sample was adjusted to pH 6.2 and 7.2 or maintained at pH 8.2 by adding 4 mM phosphate buffer (pH 6.2, 7.2, and 8.2, respectively).
as §1

E. coli (ATCC 25922) = assay: Inactivation of E. coli by disinfectants (membrane filter enumeration, contact time 5 min); type: cell-based, Escherichia coli; conditions: for log reduction at 350 µg/mL / EC (3-log inactivation) / log reduction at 1200 µg/mL: Escherichia coli, ATCC25922, 5 min; for log reduction at 350 µg/mL: dose 350 mg L-1; for log reduction at 350 µg/mL / log reduction at 1200 µg/mL: 5 min; for EC (3-log inactivation): pH 7.2, read-out: Dose for achieving 3-log inactivation of E. coli; for E. coli inactivation rate constant k: pH 7.2, contact time 5 min; for log reduction at 1200 µg/mL: dose 1200 mg L-1
Procedure: as §2
The impact of pH on the disinfection efficiencies of DBPs was examined. E. coli (ATCC 25922) was used as the test strain. The disinfection experiments were performed in 10 mM PBS solutions (pH 6.2, 7.2, and 8.2) with an initial E. coli concentration of 10^6‒10^7 cells per milliliter. To initiate the disinfection, a DBP was dosed with a bacteria suspension at a predetermined concentration. After the given contact time (5 min) at room temperature (22 ± 1 °C), the bacteria were enumerated following the membrane filter method. The bacteria concentrations in the 10 mM PBS solutions (pH 6.2, 7.2, and 8.2) without the addition of DBPs were used as controls.

P. dumerilii embryos = assay: Developmental toxicity assay with P. dumerilii embryos, dilution factor of in-use concentration (EC50,DF), also after degradation in darkness; type: in vivo, Platynereis dumerilii
Excerpt: The DBP doses for 3-log E. coli reduction (pH 7.2) were set as the in-use concentrations, which were serially diluted and added to the P. dumerilii embryos at 12-h postfertilization. A dilution factor was defined as the ratio of the in-use concentration to the exposure concentration. Each exposure set contained a control sample (i.e., the embryos at 12-h postfertilization developed in seawater without the addition of DBPs). By 24-h postfertilization, normally developed embryos should have reached the first larval stage. An inverted stereomicroscope (×40 magnification) was used to observe the larvae. The normal development percentage was calculated as the ratio of normally developed embryos to total embryos. By plotting the curve of the normal development percentage versus the dilution factor, the EC50,DF value (i.e., the dilution factor corresponding to 50% of the normal development percentage of the control sample) was obtained using SigmaPlot 12. The developmental toxicity test was conducted in duplicate.

S. aureus (ATCC 25923) = assay: Inactivation of S. aureus (contact time 5 min); type: cell-based, Staphylococcus aureus; conditions: Staphylococcus aureus, ATCC25923, 5 min, pH 7.2, read-out: Log (N/N0), S. aureus; dose 300 mg L-1; pH 7.2; contact time 5 min
Procedure: as §2

[3] = tested on: bacteriophage MS2 (ATCC 15597-B1); assay: Inactivation of bacteriophage MS2 (double-layer agar, contact time 5 min); type: cell-based; conditions: Escherichia phage MS2, ATCC15597, 5 min, pH 7.2, read-out: Log (N/N0), MS2; dose 300 mg L-1; pH 7.2; contact time 5 min
Procedure: The bacteriophage MS2 (ATCC 15597-B1) was propagated in the host E. coli (ATCC 15597) in Tryptone Soya broth at 37 °C for 16 h. The viruses were separated from the bacterial debris and purified by centrifuging the phage culture (4000×g, 10 min, 4 °C) and filtering the lysate with a 0.2 μm polyethersulfone sterile filter. The filtrate was then diluted in PBS (10 mM, pH 7.2) to an initial MS2 concentration of 10^9‒10^10 plaque-forming units […]. To initiate the disinfection experiments, a series of DBP doses were added to the MS2 suspension at room temperature (22 ± 1 °C). […] Briefly, serial 10-fold dilutions were conducted for the disinfected samples and the control sample without disinfection. Each dilution was mixed with the host E. coli in the soft agar and the mixture was immediately spread onto a Petri dish with Tryptone Soya agar. After the Petri dishes were incubated at 37 °C for 16 h, the plaque-forming units were counted. The disinfection experiments were performed in duplicate. All the materials for the disinfection experiments were autoclaved before use.

[4] = pH 6.2, read-out: Log (N/N0), E. coli, pH 6.2
[5] = pH 7.2, read-out: Log (N/N0), E. coli, pH 7.2
[6] = pH 8.2, read-out: Log (N/N0), E. coli, pH 8.2

Oc1ccc(Br)cc1Br [2,4-DBPh, 2,4-dibromophenol]
Ln (C/C0) ([1]; 0 h): 0
log reduction at 300 µg/mL (C. albicans (ATCC 14053)): 1.67
half-life at 10 mg L−1 [2]: 2100 min
Ln (C/C0) ([2]; 0 h): 0
log reduction at 350 µg/mL (E. coli (ATCC 25922); [4]): 3.35
EC (3-log inactivation) (E. coli (ATCC 25922)): 341 µg/mL
log reduction at 350 µg/mL (E. coli (ATCC 25922); [5]): 3.26
log reduction at 350 µg/mL (E. coli (ATCC 25922); [6]): 3.57
E. coli inactivation rate constant k (E. coli (ATCC 25922)): 0.28 L mg‒1 h‒1
Normal development (%) (P. dumerilii embryos; dilution factor 11.1486): 0%
Normal development (%) (P. dumerilii embryos; dilution factor 13.3783): 15.2624% and 20.2196%
Normal development (%) (P. dumerilii embryos; dilution factor 16.7229): 45.6306% and 47.4814%
Normal development (%) (P. dumerilii embryos; dilution factor 22.2972): 71.5034% and 77.6566%
Normal development (%) (P. dumerilii embryos; dilution factor 33.4458): 83.2326% and 85.1374%
Normal development (%) (P. dumerilii embryos; dilution factor 66.8916): 89.9171% and 84.7809%
Normal development (%) (P. dumerilii embryos; dilution factor 133.783): 89.4695% and 80.5305%
log reduction at 300 µg/mL (S. aureus (ATCC 25923)): 0.669
log reduction at 300 µg/mL [3]: 0.966

Oc1cc(Cl)c(O)cc1Cl [2,5-DCHQ, 2,5-dichlorohydroquinone]
half-life at 10 mg L−1 ([1]; buffer, pH 8.2): 7.8 min
Relative concentration remaining (1 at 0 min) ([1]; pH 6.2, degradation time 0 min): 1
Relative concentration remaining (1 at 0 min) ([1]; pH 6.2, degradation time 15 min): 1.022 and 0.9793
Relative concentration remaining (1 at 0 min) ([1]; pH 6.2, degradation time 30 min): 0.9852 and 1.003
Relative concentration remaining (1 at 0 min) ([1]; pH 6.2, degradation time 60 min): 1.02 and 0.9636
Relative concentration remaining (1 at 0 min) ([1]; pH 6.2, degradation time 90 min): 0.9949 and 0.9533
Relative concentration remaining (1 at 0 min) ([1]; pH 6.2, degradation time 120 min): 0.9685 and 0.9533
Relative concentration remaining (1 at 0 min) ([1]; pH 6.2, degradation time 180 min): 0.9436 and 0.9061
Relative concentration remaining (1 at 0 min) ([1]; pH 6.2, degradation time 240 min): 0.9109 and 0.8967
Relative concentration remaining (1 at 0 min) ([1]; pH 7.2, degradation time 0 min): 1
Relative concentration remaining (1 at 0 min) ([1]; pH 7.2, degradation time 15 min): 0.972 and 0.958
Relative concentration remaining (1 at 0 min) ([1]; pH 7.2, degradation time 30 min): 0.8774 and 0.8538
Relative concentration remaining (1 at 0 min) ([1]; pH 7.2, degradation time 45 min): 0.7996 and 0.7512
Relative concentration remaining (1 at 0 min) ([1]; pH 7.2, degradation time 60 min): 0.6873 and 0.677
Relative concentration remaining (1 at 0 min) ([1]; pH 7.2, degradation time 90 min): 0.5344 and 0.5155
Relative concentration remaining (1 at 0 min) ([1]; pH 7.2, degradation time 120 min): 0.3928 and 0.369
Relative concentration remaining (1 at 0 min) ([1]; pH 7.2, degradation time 180 min): 0.2793 and 0.2513
Relative concentration remaining (1 at 0 min) ([1]; pH 8.2, degradation time 0 min): 1
Relative concentration remaining (1 at 0 min) ([1]; pH 8.2, degradation time 3 min): 0.7671 and 0.7343
Relative concentration remaining (1 at 0 min) ([1]; pH 8.2, degradation time 8 min): 0.4955 and 0.4354
Relative concentration remaining (1 at 0 min) ([1]; pH 8.2, degradation time 12 min): 0.3245 and 0.3105
Relative concentration remaining (1 at 0 min) ([1]; pH 8.2, degradation time 16 min): 0.2259 and 0.2074
Relative concentration remaining (1 at 0 min) ([1]; pH 8.2, degradation time 20 min): 0.1584 and 0.1371
Relative concentration remaining (1 at 0 min) ([1]; pH 8.2, degradation time 25 min): 0.1047 and 0.0786
Ln (C/C0) ([1]; 0 min): 0
half-life at 10 mg L−1 [2]: 7.2 min
Ln (C/C0) ([2]; 0 min): 0
log reduction at 1200 µg/mL (E. coli (ATCC 25922); [4]): 2.28
EC (3-log inactivation) (E. coli (ATCC 25922)): 946 µg/mL
log reduction at 1200 µg/mL (E. coli (ATCC 25922); [5]): 3.73
log reduction at 1200 µg/mL (E. coli (ATCC 25922); [6]): 4.18
E. coli inactivation rate constant k (E. coli (ATCC 25922)): 0.05 L mg‒1 h‒1
Normal development (%) (P. dumerilii embryos; dilution factor 557.542): 8.642% and 6.061%
Normal development (%) (P. dumerilii embryos; dilution factor 1115.08): 42.6369% and 40.0555%
Normal development (%) (P. dumerilii embryos; dilution factor 1393.85): 77.0891% and 77.2417%
Normal development (%) (P. dumerilii embryos; dilution factor 2787.71): 85.5556% and 87.7778%
Normal development (%) (P. dumerilii embryos; dilution factor 5575.42): 88.6789% and 83.1961%
log reduction at 300 µg/mL (S. aureus (ATCC 25923)): 0.434
